# Results taken from US20110053897A1 (IRM LLC, priority 2009, published 2011).
# Molecular target: T1, Syk kinase (Homo sapiens, UniProt P43405)
# T1 construct: purchased
# Assay: Syk kinase inhibition, Caliper LabChip off-chip mobility-shift kinase assay
# Format: biochemical
# Conditions: Caliper LabChip assay; read-out: Syk Enzyme IC50
# How it was run: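 Purified Syk pre-incubated 15 min with compound in 100 mM HEPES pH 7.5, 1 mM DTT, 10 mM MgCl2 or MnCl2, 0.002% Brij-35, then 1.5 μM fluorescein peptide and ATP at apparent KM added; 1–1.5 h at room temperature, 4% DMSO, EDTA stop. Microfluidic mobility-shift product/substrate conversion gave % inhibition; IC50 from 12-point series (10–0.00003 μM) by 4-parameter fit.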
row,IC50 [nM],SMILES
1,87,CCn1ccc2cc(Nc3cnccn3)nc(N[C@@H]3CCC[C@@H]3CO)c2c1=O [compound 942]
2,248,CC(C)(C)Nc1nc(Nc2cc(C(=O)NCCc3c[nH]cn3)ccn2)cc2ccn(CCO)c(=O)c12 [compound 687]
3,57,CC(C)(CO)Nc1nc(-c2cnc(N)nc2)cc2ccn(CCO)c(=O)c12 [compound 902]
4,81,CCn1ccc2cc(Nc3cc(C)ccn3)nc(NC(C)(CO)CO)c2c1=O [compound 808]
5,5,CC(C)(C)Nc1nc(-c2cnc(N)nc2)cc2cc[nH]c(=O)c12 [compound 894]
6,69,CCn1ccc2cc(Nc3cc(C(C)(C)O)ccn3)nc(NC(C)(C)CO)c2c1=O [compound 701]
7,62,Cc1ccnc(Nc2cc3ccn(C(C)C)c(=O)c3c(NC(C)(C)CO)n2)c1 [compound 819]
8,169,CC(C)(C)Nc1nc(Nc2cc(C(C)(C)C(=O)O)ccn2)cc2ccn(CCO)c(=O)c12 [compound 861]
9,144,Cn1cc(Cl)c2cc(Nc3cnccn3)nc(N[C@H]3CC[C@@H](O)CC3)c2c1=O [compound 785]
10,651,Nc1nc(Nc2cnccn2)cc2ccn(CCO)c(=O)c12 [compound 811]
11,34,N#CCn1ccc2cc(-c3cnc(N)nc3)nc(NC3CCOCC3)c2c1=O [compound 742]
12,756,CC(C)(C)Nc1nc(Nc2cc(C3CCCCO3)ncn2)cc2ccn(CCO)c(=O)c12 (stereo not shown) [compound 626]
13,18,Nc1ncc(-c2cc3ccn(C[C@H](O)CO)c(=O)c3c(NC3CCCC3)n2)cn1 [compound 776]
14,174,O=c1c2c(N[C@H]3CC[C@@H](O)CC3)nc(Nc3cnccn3)cc2ccn1Cc1ccncc1 [compound 1024]
15,752,Cn1ccc2cc(Nc3nccc(O)n3)nc(Nc3ccc(C(=O)N4CCOCC4)cc3)c2c1=O [compound 805]
16,7,"CC(C)(C)Nc1nc(Nc2cnccn2)cc2ccn(CC(O)CO)c(=O)c12 (stereo not shown) [compound 664, 8-(tert-butylamino)-2-(2,3-dihydroxypropyl)-6-(pyrazin-2-ylamino)-2,7-naphthyridin-1(2H)-one]"
17,< 0.847,CC1(Nc2nc(-c3cnc(N)nc3)cc3ccn(CCO)c(=O)c23)CCC1 [compound 907]

row,IC50 [nM],SMILES
1,19,CC(C)(C)Nc1nc(Nc2cnccn2)cc2ccn(CCC#N)c(=O)c12 [compound 1004]
2,122,CCn1ccc2cc(Nc3cnccn3)nc(N[C@H](CO)C(C)C)c2c1=O [compound 1043]
3,85,COCCCc1cc(Nc2cc3ccn(CCO)c(=O)c3c(NC(C)(C)C)n2)ncn1 [compound 622]
4,18,CC(O)c1ccnc(Nc2cc3ccn(CC(N)=O)c(=O)c3c(NC3(C)CCC3)n2)c1 (stereo not shown) [compound 721]
5,44,NC(=O)Cn1ccc2cc(-c3cnc(N)nc3)nc(N[C@H]3C[C@@H](CO)C3)c2c1=O [compound 746]
6,60,CC(C)(C)Nc1nc(Nc2cc(/C=C/CCO)ncn2)cc2ccn(CCO)c(=O)c12 [compound 627]
7,6,CN1CCC(Oc2cc(Nc3cc4ccn(C[C@H](O)CO)c(=O)c4c(NC(C)(C)C)n3)ncn2)CC1 [compound 649]
8,51,CCn1ccc2cc(Nc3cnccn3)nc(NC3CCC(C)(O)CC3)c2c1=O (stereo not shown) [compound 952]
9,14,CC(C)Nc1nc(Nc2cc(C(C)(C)O)ccn2)cc2ccn(CCO)c(=O)c12 [compound 705]
10,202,"CCn1ccc2cc(-c3cnc(N)nc3)nc(NS(C)(=O)=O)c2c1=O [compound 744, N-(3-(2-Aminopyrimidin-5-yl)-7-ethyl-8-oxo-7,8-dihydro-2,7-naphthyridin-1-yl)methane sulfonamide]"
11,1350,CC(C)(C)Nc1nc(Nc2cc(C(C)(C)C)ccn2)cc2ccn(CCO)c(=O)c12 [compound 616]
12,72,CCn1ccc2cc(Nc3cc(C)ccn3)nc(N[C@@H]3CC[C@H](CO)C3)c2c1=O (stereo in doubt) [compound 789]
13,643,CC(C)(C)Nc1nc(Nc2cc(C(=O)O)ccn2)cc2ccn(CCO)c(=O)c12 [compound 680]
14,145,CC(C)(Cc1ccc(F)cc1)Nc1nc(-c2cnc(N)nc2)cc2ccn(CCO)c(=O)c12 [compound 925]
15,34,CC(C)(C)Nc1nc(Nc2cnccn2)cc2ccn(C(C)(C)C(N)=O)c(=O)c12 [compound 672]
16,333,Cc1ccnc(Nc2cc3ccn(C)c(=O)c3c(Nc3ccc(OCCN4CCOCC4)cc3)n2)c1 [compound 653]

# Same assay, conditions: read-out: Syk Enzyme IC50
row,IC50 [nM],SMILES
1,87.9,CC(C)Nc1nc(Nc2cc(-c3cnn(C)c3)ccn2)cc2cc[nH]c(=O)c12 [compound 595]
2,101,Cn1ccc2cc(Nc3cnccn3)nc(Nc3ccc(C(N)=O)cc3)c2c1=O [compound 468]
3,803,O=c1[nH]ccc2cc(Nc3ccc(Cl)cn3)nc(Nc3ccc(N4CCOCC4)cc3)c12 [compound 526]
4,60,CCN1CCN(c2n[nH]c3cc(Nc4nc(-c5cncc(C(=O)N6CCOCC6)c5)cc5cc[nH]c(=O)c45)ccc23)CC1 [compound 206]
5,502,[2H]C([2H])([2H])n1ccc2cc(Nc3cc(C)c(Cl)cn3)nc(NC(C)(C)C)c2c1=O [compound 537]
6,202,CC(C)N1CCC(c2cc3cc[nH]c(=O)c3c(Nc3ccc(N4CCOCC4)cc3)n2)CC1 [compound 3]
7,29,COCCNC(=O)c1ccc(Nc2nc(-c3cnc(C)nc3)cc3cc[nH]c(=O)c23)cc1 [compound 74]
8,11,CNC(=O)C(C)N1CCC(c2ccc(Nc3nc(-c4cncc(OC)n4)cc4cc[nH]c(=O)c34)cc2C)CC1 (stereo not shown) [compound 173]
9,501,Cc1ccnc(Nc2cc3cc[nH]c(=O)c3c(NCCO)n2)c1 [compound 561]
10,120,CCn1ccc2cc(Nc3cc(C)ccn3)nc(NC[C@H]3CC[C@H](O)C3)c2c1=O [compound 410]
11,1310,CO/N=C(\C)c1cc2cc[nH]c(=O)c2c(Nc2ccc(N3CCO[C@H](C)C3)c(C)c2)n1 [compound 234]
12,398,COc1cncc(-c2cc3cc[nH]c(=O)c3c(Nc3ccc(C4CCN(C(=O)C(O)C(C)C)CC4)c(C)c3)n2)n1 (stereo not shown) [compound 6]
13,41,COc1cncc(-c2cc3cc[nH]c(=O)c3c(Nc3ccc(C4CCN(CC(=O)N5CCCC5)CC4)c(C)c3)n2)n1 [compound 156]
14,21.5,O=c1c2c(NCC(F)(F)F)nc(Nc3cnccn3)cc2ccn1CCO [compound 456]
15,115,COCC(C)Nc1nc(-c2cnc(N)nc2)cc2cc[nH]c(=O)c12 (stereo not shown) [compound 180]
16,214,Cc1ccnc(Nc2cc3ccn(C)c(=O)c3c(NCC(F)(F)F)n2)c1 [compound 493]
17,167,COCC(C)Nc1nc(Nc2ccccn2)cc2cc[nH]c(=O)c12 (stereo not shown) [compound 276]
18,7,COc1cncc(-c2cc3cc[nH]c(=O)c3c(Nc3ccc(C4CCN(CC(O)CO)CC4)cc3)n2)n1 (stereo not shown) [compound 127]
19,120,C[C@@H](CO)Nc1nc(Nc2cnccn2)cc2ccn(C)c(=O)c12 [compound 327]
20,500,Cc1ccnc(Nc2cc3cc[nH]c(=O)c3c(NCC(C)C)n2)c1 [compound 282]
21,344,Cc1cc(-c2cc3cc[nH]c(=O)c3c(Nc3ccc(C4CCN(CCC#N)CC4)c(C)c3)n2)nc(N)n1 [compound 70]
22,52,CC(C)Nc1nc(Nc2cnccn2)cc2ccn(CCO)c(=O)c12 [compound 318]

row,IC50 [nM],SMILES
1,70,Cc1ccnc(Nc2cc3cc[nH]c(=O)c3c(NC[C@@H](C)O)n2)c1 [compound 513]
2,117,Cc1ncc(-c2cc3cc[nH]c(=O)c3c(Nc3ccc(C4CCN(C5CS(=O)(=O)C5)CC4)c(C)c3)n2)cn1 [compound 107]
3,962,CCn1ccc2cc(Nc3cc(Cl)ccn3)nc(NCC(F)(F)F)c2c1=O [compound 592]
4,166,Cc1ccnc(Nc2cc3cc[nH]c(=O)c3c(NCCc3cccnc3)n2)c1 [compound 284]
5,55,CC(CO)Nc1nc(Nc2ccccn2)cc2cc[nH]c(=O)c12 (stereo not shown) [compound 274]
6,147,CCn1ccc2cc(Nc3cnccn3)nc(NC(C)(C)C)c2c1=O [compound 465]
7,1630,Nc1nc(Nc2cnccn2)cc2ccn(Cc3ccccc3)c(=O)c12 [compound 478]
8,1660,COc1cncc(-c2cc3cc[nH]c(=O)c3c(Nc3ccc4c(c3)C3CNCC4C3)n2)n1 (stereo not shown) [compound 96]
9,580,Cn1ccc2cc(Nc3cnccn3)nc(Nc3cccc(C(N)=O)c3)c2c1=O [compound 477]
10,748,CCN(CC)CCNC(=O)c1ccc(Nc2nc(Nc3cc(C)ccn3)cc3ccn(C)c(=O)c23)cc1 [compound 331]
11,56,Cc1ccnc(Nc2cc3cc[nH]c(=O)c3c(N[C@@H]3CCC[C@H]3O)n2)c1 (racemic) [compound 267]
12,97,[2H]C([2H])([2H])n1ccc2cc(Nc3cnccn3)nc(NC(C)(C)C)c2c1=O [compound 469]
13,142,Cn1ccc2cc(Nc3ccc(C(N)=O)cn3)nc(N)c2c1=O [compound 574]
14,270,CCNC(=O)Cn1ccc2cc(Nc3cc(C)ccn3)nc(NC(C)C)c2c1=O [compound 316]
15,302,CC[C@H](CO)Nc1nc(Nc2cnccn2)cc2ccn(CC)c(=O)c12 [compound 457]
16,115,COc1cncc(-c2cc3cc[nH]c(=O)c3c(Nc3ccc(C4CCN(CCS(C)(=O)=O)CC4)c(C)c3)n2)n1 [compound 132]
17,37,CCn1ccc2cc(Nc3cnccn3)nc(N[C@H]3CCOC3)c2c1=O [compound 355]
18,49,Cc1ccnc(Nc2cc3ccn(CCN(C)C)c(=O)c3c(N[C@H]3CC[C@@H](O)CC3)n2)c1 [compound 386]
19,187,CCn1ccc2cc(Nc3cc(C)ccn3)nc(NC(C)C)c2c1=O [compound 191]
20,41,Cc1ccnc(Nc2cc3ccn(C)c(=O)c3c(N[C@H]3CC[C@H](O)CC3)n2)c1 [compound 357]
21,193,CCn1ccc2cc(Nc3cnc(C)cn3)nc(N[C@H]3CC[C@@H](O)CC3)c2c1=O [compound 392]
